From paper PMC10598672, “A hybrid energy-based and AI-based screening approach for the discovery of novel inhibitors of JAK3” (Frontiers in Medicine, 2023)

Experiments:
JAK3 [1] = biological target: T1, JAK3 (Homo sapiens, UniProt P52333); assay: HTRF kinase assay, inhibition rate at […]; type: biochemical; conditions: read-out: Inhibit rate (%)
T1 sequence (P52333 1-1124): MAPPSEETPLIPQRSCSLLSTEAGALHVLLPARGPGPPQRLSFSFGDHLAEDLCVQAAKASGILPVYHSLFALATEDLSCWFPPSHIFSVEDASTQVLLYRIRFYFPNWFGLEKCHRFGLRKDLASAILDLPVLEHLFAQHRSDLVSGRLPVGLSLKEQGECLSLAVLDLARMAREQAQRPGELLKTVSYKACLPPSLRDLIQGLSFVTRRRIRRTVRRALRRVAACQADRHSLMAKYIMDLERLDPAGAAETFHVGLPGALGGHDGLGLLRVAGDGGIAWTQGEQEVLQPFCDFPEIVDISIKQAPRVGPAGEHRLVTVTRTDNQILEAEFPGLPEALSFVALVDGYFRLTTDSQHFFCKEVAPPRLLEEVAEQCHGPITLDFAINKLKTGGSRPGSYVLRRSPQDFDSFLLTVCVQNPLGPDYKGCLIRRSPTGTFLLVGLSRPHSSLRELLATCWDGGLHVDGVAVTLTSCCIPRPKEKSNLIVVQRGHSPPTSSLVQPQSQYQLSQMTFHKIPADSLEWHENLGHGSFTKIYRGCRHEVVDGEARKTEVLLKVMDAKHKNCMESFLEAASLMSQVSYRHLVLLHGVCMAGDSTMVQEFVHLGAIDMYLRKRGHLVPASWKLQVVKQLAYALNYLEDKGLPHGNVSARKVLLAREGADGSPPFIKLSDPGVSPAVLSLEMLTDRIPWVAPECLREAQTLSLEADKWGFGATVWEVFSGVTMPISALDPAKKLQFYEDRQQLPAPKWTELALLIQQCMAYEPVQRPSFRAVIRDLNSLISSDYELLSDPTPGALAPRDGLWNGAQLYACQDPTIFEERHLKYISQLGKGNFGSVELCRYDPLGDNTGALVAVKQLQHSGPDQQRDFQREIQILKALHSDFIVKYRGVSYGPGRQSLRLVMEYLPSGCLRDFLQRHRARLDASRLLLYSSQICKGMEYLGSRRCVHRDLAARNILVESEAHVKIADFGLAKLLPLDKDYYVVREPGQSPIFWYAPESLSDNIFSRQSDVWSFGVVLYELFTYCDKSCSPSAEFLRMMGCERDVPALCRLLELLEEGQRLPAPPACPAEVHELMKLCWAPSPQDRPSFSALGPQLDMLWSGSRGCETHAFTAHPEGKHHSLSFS

JAK3 [2] = biological target: T1, JAK3; assay: HTRF kinase assay (Cryptate/XL665), dose-response IC50; type: biochemical

inhibition at 25 µM (JAK3 [1])	SMILES	IC50 (JAK3 [2])
93.37 ± 0.01%	CN1CCC(Nc2nc(Nc3ccc(Oc4ccccc4)cc3)c3c(=O)[nH]cc(Br)c3n2)CC1 [compound 4]	
75.2 ± 0.85%	CN1CCN(c2ccc(Nc3ncc4cc(C#N)c(=O)n(C5CCCC5)c4n3)cc2)CC1 [compound 5]	
	CC(=O)Nc1cc(Oc2ccc3c(C(=O)Nc4ccc(CN5CCN(C)CC5)c(C(F)(F)F)c4)cccc3c2)ncn1 [compound 8]	4.11 µM
